Consider 13 compounds from US4610977A, “N-alkyl and N-benzyl adriamycin derivatives” (The University of Tennessee Research Corporation, priority 1985, dated 1986).

Like-named read-outs stand apart in the source and are kept apart here.

The test system of one data set is CCRF-CEM cell line. Description: Growth inhibition of CCRF-CEM cells in culture, 48 hours continuous drug exposure. Type of data set: cell-based, child with lymphoblastic leukemia. The settings on record: Homo sapiens. The method, then: The toxicity and therapeutic effectiveness of the new compounds and active agents of the present invention are shown by in vitro assays and by in vivo evaluations in mice. The in vitro assays measure the growth inhibiting activity of the materials against the CCRF-CEM cell line in culture. The cell line was derived from the peripheral blood of a child with lymphoblastic leukemia as described by Foley et al., Cancer, Volume 18, page 522 et seq. (1965), and the assays were carried out by the procedure of Foley and Lazarus, Biochem. Pharmacol., Vol. 16, pages 659 et seq. (1967), the compounds being dissolved in dimethyl sulfoxide and diluted into cell culture media to give a final dimethyl sulfoxide concentration of 1%, the results being reported in terms of the dose in micromoles per liter required to inhibit growth of the cultures by 50% relative to control cultures to which no drug had been added (ID50).
^1 Concentration required to inhibit growth of cultures by 50%
relative to untreated controls; 48 hours continuous drug exposure.

The subject of the next data set is murine L1210 leukemia. Description: In vivo antitumor activity against murine L1210 leukemia in B6D2F1 male mice. The settings on record: L1210, qd 1-4; for % ILS (percent median increase in life span relative to untreated controls): at optimal dose (Examples 1/2/3: 12.5/20.0/25.0, adriamycin 3.0 mg/kg); for % ILS (percent median increase in life span relative to untreated controls) / LTS (tumor free long term survivors): ip; for LTS (tumor free long term survivors): at optimal dose, day of sacrifice: Examples 1-3 42. The text has this:
(§1) The in vivo evaluations were made by preparing a 0.01 to 0.4% by weight solution of the active agent in an aqueous solution of polyethoxylated castor oil (10% by volume) and ethanol (10% by volume) as a carrier and injecting the dosage intraperitoneally. The evaluations were made of the antitumor activity against the murine P 388 and L1210 leukemias in B6D2F1 male mice essentially according to standard National Cancer Institute protocols as set forth by Geran et al., Cancer Chemotherap. Rep., Part 3, Volume 3, pages 1 et seq.

Experiment in data set [1]: as above
The following applies: mouse, in vivo, ip.
Text: as §1

A short description of the next data set: in vivo. The following applies: mouse, ip.
Text: as §1

The test system of a further data set is malignant tumors. The following applies: cited from earlier work; for Clinical antitumor effectiveness: certain malignant tumors, e.g. induction of remission in acute leukemia; for Toxicities accompanying chemotherapy: limit effectiveness, particularly long-term use.
Where [2] appears, read: 48 hours continuous drug exposure, final DMSO 1%, read-out: ID50 (concentration required to inhibit growth of cultures by 50% relative to untreated controls).
The mark [3] stands for this setting: 48 hours continuous drug exposure, read-out: ID50, corresponding compounds having different N-substitution.

Regarding `CCCCC(=O)OCC(=O)[C@]1(O)Cc2c(O)c3c(c(O)c2[C@@H](O[C@H]2C[C@H](N(CCC)CCC)[C@H](O)[C@H](C)O2)C1)C(=O)c1c(OC)cccc1C3=O` [Example 2, N,N-Di(n-propyl)adriamycin-14-valerate], in the data set on CCRF-CEM cell line (setting [2]), the IC50 came to 1900 nM. In addition, the “% ILS (percent median increase in life span relative to untreated controls)” value in the data set on murine L1210 leukemia is recorded as “> +350%”. The “LTS (tumor free long term survivors)” value in the data set on murine L1210 leukemia is given as 4/7. In addition, the MTD (in data set [1]; in “in vivo”) was 20 mg/kg throughout.
As to `COc1cccc2c1C(=O)c1c(O)c3c(c(O)c1C2=O)C[C@@](O)(C(=O)CO)C[C@@H]3O[C@H]1C[C@H](N)[C@H](O)[C@H](C)O1` [Adriamycin], in the data set on malignant tumors, the Clinical antitumor effectiveness entry is reported as “effective clinically against certain malignant tumors” and the Toxicities accompanying chemotherapy result was “a variety of toxicities”. The “Clinical efficacy against certain solid tumors” value in the data set with malignant tumors (certain solid tumors) is “has shown clinical efficacy against certain solid tumors”. Further, in the data set on murine L1210 leukemia (adriamycin 3.0 mg/kg, footnote 4), the “All animals dead by day” value is at most 22 days. For the same compound, in the data set on murine L1210 leukemia, the “% ILS (percent median increase in life span relative to untreated controls)” value is reported as “+90%” and the “LTS (tumor free long term survivors)” value is reported as 0/7. The compound further gave an MTD in data set [1] of 3 mg/kg.
As to `CCCCC(=O)OCC(=O)[C@]1(O)Cc2c(O)c3c(c(O)c2[C@@H](O[C@H]2C[C@H](N(C)C)[C@H](O)[C@H](C)O2)C1)C(=O)c1c(OC)cccc1C3=O` [dimethyl], the IC50 with CCRF-CEM cell line (setting [3]) amounted to 20 nM.
As to `COc1cccc2c1C(=O)c1c(O)c3c(c(O)c1C2=O)C[C@@](O)(C(C)=O)C[C@@H]3O[C@H]1C[C@H](N)[C@H](O)[C@H](C)O1` [daunomycin], in the data set on malignant tumors, the Clinical antitumor effectiveness entry was “effective clinically against certain malignant tumors” and the Toxicities accompanying chemotherapy entry is listed as “a variety of toxicities”.
As to `CCCCC(=O)OCC(=O)[C@]1(O)Cc2c(O)c3c(c(O)c2[C@@H](O[C@H]2C[C@H](NCCC)[C@H](O)[C@H](C)O2)C1)C(=O)c1c(OC)cccc1C3=O` [mono-n-propyl, N mono(n-propyl) adriamycin-14-valerate], the IC50 in the data set on CCRF-CEM cell line (setting [3]) turned out to be 170 nM. For the same compound, the MTD in “in vivo” came out at 15 mg/kg.
`CCCCN(CCCC)[C@H]1C[C@H](O[C@H]2C[C@](O)(C(=O)CO)Cc3c(O)c4c(c(O)c32)C(=O)c2c(OC)cccc2C4=O)O[C@@H](C)[C@H]1O` [Di-n-butyl] came in with an MTD in the data set “in vivo” of 25 mg/kg.
For the compound `CCCCC(=O)OCC(=O)[C@]1(O)Cc2c(O)c3c(c(O)c2[C@@H](O[C@H]2C[C@H](NCc4ccccc4)[C@H](O)[C@H](C)O2)C1)C(=O)c1c(OC)cccc1C3=O` [Example 1, N-Benzyladriamycin-14-valerate], in the data set on CCRF-CEM cell line (setting [2]), the IC50 is 1000 nM. Also, in the data set with murine L1210 leukemia, the “% ILS (percent median increase in life span relative to untreated controls)” value is “> +350%” and the “LTS (tumor free long term survivors)” value is on record as 5/7. The compound further gave an MTD in data set [1] of 12.5 mg/kg. Moreover, the MTD in “in vivo” was determined as 10 mg/kg.
As for `COc1cccc2c1C(=O)c1c(O)c3c(c(O)c1C2=O)C[C@@](O)(C(=O)CO)C[C@@H]3O[C@H]1C[C@H](NCc2ccccc2)[C@H](O)[C@H](C)O1` [Mono-N--benzyl], in the data set “in vivo”, the MTD was 5 mg/kg.
As for `CCCCCCN(CCCCCC)[C@H]1C[C@H](O[C@H]2C[C@](O)(C(=O)COC(=O)CCCC)Cc3c(O)c4c(c(O)c32)C(=O)c2c(OC)cccc2C4=O)O[C@@H](C)[C@H]1O` [di-n-hexyl], in the data set with CCRF-CEM cell line (setting [3]), the IC50 was 2500 nM. This compound showed an MTD in “in vivo” of 40 mg/kg.
With `CCCN(CCC)[C@H]1C[C@H](O[C@H]2C[C@](O)(C(=O)CO)Cc3c(O)c4c(c(O)c32)C(=O)c2c(OC)cccc2C4=O)O[C@@H](C)[C@H]1O` [Di-n-propyl], in “in vivo”, the MTD amounted to 20 mg/kg.
With `CCCCC(=O)OCC(=O)[C@]1(O)Cc2c(O)c3c(c(O)c2[C@@H](O[C@H]2C[C@H](N(CC)CC)[C@H](O)[C@H](C)O2)C1)C(=O)c1c(OC)cccc1C3=O` [diethyl], the IC50 in the data set on CCRF-CEM cell line (setting [3]) was 300 nM. Besides, the MTD in the data set “in vivo” is 8 mg/kg.
As to `CCCCC(=O)OCC(=O)[C@]1(O)Cc2c(O)c3c(c(O)c2[C@@H](O[C@H]2C[C@H](N(CCCC)CCCC)[C@H](O)[C@H](C)O2)C1)C(=O)c1c(OC)cccc1C3=O` [Example 3, N,N-Di(n-butyl)adriamycin-14-valerate], in the data set on CCRF-CEM cell line (setting [2]), the IC50 came out at 2100 nM. Also, in the data set on murine L1210 leukemia, the “% ILS (percent median increase in life span relative to untreated controls)” value is reported as “> +350%” and the “LTS (tumor free long term survivors)” value is 5/7. Moreover, in data set [1], the MTD stood at 25 mg/kg. Moreover, the MTD in the data set “in vivo” came out at 30 mg/kg.
Consider `CCCCC(=O)OCC(=O)[C@]1(O)Cc2c(O)c3c(c(O)c2[C@@H](O[C@H]2C[C@H](N(Cc4ccccc4)Cc4ccccc4)[C@H](O)[C@H](C)O2)C1)C(=O)c1c(OC)cccc1C3=O` [dibenzyl], for which, in the data set with CCRF-CEM cell line (48 h, read-out: ID50, corresponding compounds having different N-substitution), the IC50 is above 5000 nM. In the data set “in vivo”, this compound registered an MTD of 20 mg/kg.
